Reference: patent US20030206968A1, “Fungicidal mixtures” (priority 1999, published 2003)

Tests used:
Assay type in all cases: in vivo
Septoria tritici = assay: Greenhouse, Septoria tritici on wheat, 1 day residual; settings: Example 9
Method: (§1) The trials are carried out under greenhouse (Examples 1 to 32) or field conditions (Examples 33 to 40) in residual or curative applications. The fungicides are applied in single treatments, or in a combination comprising an azolopyrimidine of formula I and a compound selected from the classes (A), (B) and (C) as defined above. The compounds are applied in form of an aqueous spray mix obtained from a concentrated formulation or the technical material.
(§2) 1. Seed is planted in 6 cm diameter plastic pots and maintained in the greenhouse.
(§3) 2. When the primary leaf is fully expanded in the case of cereals or several leaves are present in the case of dicots, formulated test compounds are sprayed with a three nozzle overhead fungicide sprayer to near run-off. Alternatively, a single nozzle overhead track sprayer is used for application of the compounds to cereals at a rate of 200 l/ha. Plants are then allowed to air-dry.
(§4) 3. Inoculation precedes treatment in the case of curative evaluations and follows treatment in case of residual evaluations. For inoculation of powdery mildew disease, plants are set up on greenhouse benches with bottom watering mats and inoculated by dusting them with conidia from infected plants. Between inoculation and treatment for curative evaluations and between treatment and inoculation for residual evaluations, plants are maintained in the greenhouse with bottom watering.
For inoculation of non-powdery mildew diseases, an aqueous spore suspension of the pathogen is applied to the plant and the plants are kept 1-2 days in a moist infection chamber before being returned to the greenhouse where they are maintained by bottom watering.
(§5) 4. Disease on the foliage as percent leaf area with disease symptoms/signs is evaluated about 7 days after inoculation. In the case of wheat, the tips and bases of the leaves are excluded from the evaluation. [formula]
(§6) 1. Technical compounds are formulated in a solvent/surfactant system consisting of 5% acetone and 0.05% Tween 20 in deionized water. Compounds are dissolved in acetone prior to addition of the water; the Tween 20 can be added through either the acetone or the water. Dilutions are made using the solvent/surfactant system. Formulated compounds are prepared using deionized water.
(§7) 2. Two kinds of controls are included: Plants treated with the solvent/surfactant solution and inoculated (Solvent Blank). Untreated plants which are inoculated (Inoculated Control).
(§8) Assessments of the diseases took place at the indicated day after the application of the compounds. Per cent infected leaf area infected was evaluated. The efficacy of the compounds/compounds mixtures to control the diseases was calculated by using the formula given above under item 4: […]
(§9) Synergy was calculated using the % disease control values of specific treatments for the two COLBY formula given hereinabove
Fungicidal efficacy of the mixture of Azolopyrimidine C+metconazole (1 day residual) against Septoria tritici on wheat The tank mix was obtained from a SC formulation containing 100 g Azoplopyrimidine C per liter and an EC containing 100 g metconazole per liter.

Blumeria graminis [1] = assay: Greenhouse, Blumeria graminis on wheat, 1 day residual
From the text: The fungicides are applied in single treatments, or in a combination comprising an azolopyrimidine of formula I and a compound selected from the classes (A), (B) and (C) as defined above. The compounds are applied in form of an aqueous spray mix obtained from a concentrated formulation or the technical material.
as §2, §3, §4, §5, §6, §7, §8, §9
Fungicidal efficacy of the mixture of Azolopyrimidine C+quinoxyfen (1 day residual)) against Blumeria graminis on wheat The tank mix was obtained from technical material of Azolopyrimidine C and quinoxyfen.
Fungicidal efficacy of the mixture of Azolopyrimidine C+metalaxyl (1 day residual) against Blumeria graminis on wheat The tank mix was obtained from technical material of Azolopyrimidine C and metalaxyl.
Fungicidal efficacy of the mixture of Azolopyrimidine C+famoxadone (1 day residual) against Blumeria graminis on wheat The tank mix was obtained from technical material of Azolopyrimidine C and famoxadone.

Blumeria graminis [2] = assay: Greenhouse, Blumeria graminis on wheat, 4 days residual; settings: Example 30
Method: as §1, §2, §3, §4, §5, §6, §7, §8, §9
Fungicidal efficacy of the mixture of (S)-Azolopyrimidine C in admixture with Azoxystrobin or Trifloxystrobin (4 days residual) against Blumeria graminis on wheat. The tank mixes were obtained from technical material of (S)-Azolopyrimidine C and Azoxystrobin or Trifloxystrobin.

Blumeria graminis [3] = assay: Greenhouse, Blumeria graminis on wheat, 2 days curative; settings: Example 27
Method: as §1, §2, §3, §4, §5, §6, §7, §8, §9
Fungicidal efficacy of the mixture of (S)-Azolopyrimidine C in admixture with Azoxystrobin or Trifloxystrobin (2 days curative) against Blumeria graminis on wheat. The tank mixes were obtained from technical material of (S)-Azolopyrimidine C and Azoxystrobin or Trifloxystrobin.

Blumeria graminis [4] = assay: Greenhouse, Blumeria graminis on barley, 2 days curative
Method: as §1, §2, §3, §4, §5, §6, §7, §8, §9
Fungicidal efficacy of the mixture of (S)-Azolopyrimidine C in admixture with Fenhexamid (2 days curative) against Blumeria graminis on barley. The tank mixes were obtained from technical material of (S)-Azolopyrimidine C and Fenhexamid.
Fungicidal efficacy of the mixture of (S)-Azolopyrimidine C in admixture with Azoxystrobin or Trifloxystrobin (2 days curative) against Blumeria graminis on barley. The tank mixes were obtained from technical material of (S)-Azolopyrimidine C and Azoxystrobin or Trifloxystrobin.

For `CC(Nc1c(-c2c(F)cc(F)cc2F)c(Cl)nc2ncnn12)C(F)(F)F` (stereo not shown) [Azolopyrimidine C, 5-chloro-6-(2,4,6-trifluorophenyl)-7-(1,1,1-trifluoroprop-2-ylamino)-[1,2,4]triazolo[1,5-a]pyrimidine], the “Observed Efficacy” value (Septoria tritici; dose rate 2 ppm) was 0%, the “Observed Efficacy” value (Septoria tritici; dose rate 5 ppm) was 0% and the “Observed Efficacy” value (Septoria tritici; dose rate 8 ppm) was 0%. For the same compound, the “Observed Efficacy” value (Septoria tritici; dose rate 25 ppm) was 68%, the “Observed Efficacy” value (Septoria tritici; dose rate 40 ppm) was 91% and the “Observed Efficacy” value (Blumeria graminis [1]; Example 16, dose rate 0.06 ppm) was 0%. For the same compound, the “Observed Efficacy” value (Blumeria graminis [1]; Example 16, dose rate 0.25 ppm) was 19%, the “Observed Efficacy” value (Blumeria graminis [1]; Example 16, dose rate 1 ppm) was 42% and the “Observed Efficacy” value (Blumeria graminis [1]; Example 16, dose rate 4 ppm) was 96%. For the same compound, the “Observed Efficacy” value (Blumeria graminis [1]; Example 17, dose rate 0.06 ppm) was 0%, the “Observed Efficacy” value (Blumeria graminis [1]; Example 17, dose rate 0.25 ppm) was 19% and the “Observed Efficacy” value (Blumeria graminis [1]; Example 17, dose rate 1 ppm) was 42%. For the same compound, the “Observed Efficacy” value (Blumeria graminis [1]; Example 17, dose rate 4 ppm) was 96%, the “Observed Efficacy” value (Blumeria graminis [1]; Example 18, dose rate 0.06 ppm) was 0% and the “Observed Efficacy” value (Blumeria graminis [1]; Example 18, dose rate 0.25 ppm) was 19%. For the same compound, the “Observed Efficacy” value (Blumeria graminis [1]; Example 18, dose rate 1 ppm) was 42% and the “Observed Efficacy” value (Blumeria graminis [1]; Example 18, dose rate 4 ppm) was 96%.

With “5-chloro-6-(2,4,6-trifluorophenyl)-7-(1,1,1-trifluoroprop-2-ylamino)-[1,2,4]triazolo[1,5-a]pyrimidine [(S)-Azolopyrimidine C]” the “Observed Efficacy” value (Blumeria graminis [2]; dose rate 3.1 ppm) was 0%, the “Observed Efficacy” value (Blumeria graminis [2]; dose rate 6.3 ppm) was 0% and the “Observed Efficacy” value (Blumeria graminis [2]; dose rate 12.5 ppm) was 3%. For the same compound, the “Observed Efficacy” value (Blumeria graminis [2]; dose rate 25 ppm) was 11%, the “Observed Efficacy” value (Blumeria graminis [2]; dose rate 50 ppm) was 34% and the “Observed Efficacy” value (Blumeria graminis [3]; dose rate 1.6 ppm) was 0%. For the same compound, the “Observed Efficacy” value (Blumeria graminis [3]; dose rate 3.1 ppm) was 0%, the “Observed Efficacy” value (Blumeria graminis [3]; dose rate 6.3 ppm) was 10% and the “Observed Efficacy” value (Blumeria graminis [3]; dose rate 12.5 ppm) was 40%. The “Observed Efficacy” value (Blumeria graminis [3]; dose rate 25 ppm) was 61%, the “Observed Efficacy” value (Blumeria graminis [3]; dose rate 50 ppm) was 81% and the “Observed Efficacy” value (Blumeria graminis [4]; Example 26, dose rate 0.74 ppm) was 0%. For the same compound, the “Observed Efficacy” value (Blumeria graminis [4]; Example 26, dose rate 2.2 ppm) was 8%, the “Observed Efficacy” value (Blumeria graminis [4]; Example 26, dose rate 6.7 ppm) was 29% and the “Observed Efficacy” value (Blumeria graminis [4]; Example 26, dose rate 20 ppm) was 37%. For the same compound, the “Observed Efficacy” value (Blumeria graminis [4]; Example 26, dose rate 60 ppm) was 60%, the “Observed Efficacy” value (Blumeria graminis [4]; Example 26, dose rate 180 ppm) was 86% and the “Observed Efficacy” value (Blumeria graminis [4]; Example 29, dose rate 1.6 ppm) was 0%. The “Observed Efficacy” value (Blumeria graminis [4]; Example 29, dose rate 3.1 ppm) was 1%, the “Observed Efficacy” value (Blumeria graminis [4]; Example 29, dose rate 6.3 ppm) was 15% and the “Observed Efficacy” value (Blumeria graminis [4]; Example 29, dose rate 12.5 ppm) was 31%. The “Observed Efficacy” value (Blumeria graminis [4]; Example 29, dose rate 25 ppm) was 54% and the “Observed Efficacy” value (Blumeria graminis [4]; Example 29, dose rate 50 ppm) was 73%.
